Data: patent publication US7700622B2, “p-38 kinase inhibitors” (Novartis AG, priority 2003, dated 2010)

These compounds were tested against T1, p38α kinase (Homo sapiens, UniProt Q16539) (assay: p38α assay (coupled ADP/NADH oxidation kinase assay)). Settings: 60 min preincubation with p38α, 0.15 mM ATP, 37° C.; read-out: Activity (p-38) IC50.
T1 construct: purchased Upstate
Format: biochemical
Set-up: scale not given here
Method: cDNAs of human p38α and β were cloned by PCR. The α and β cDNAs were subcloned into DEST2 plasmid (Gateway, InVitrogen). His6-p38 fusion protein was expressed in E. coli and purified from bacterial lysates by affinity chromatography using Ni^+2-NTA-agarose. His6-p38 protein was activated by incubating with constitutively active MKK6. Active p38 was separated from MKK6 by affinity chromatography. Constitutively active MKK6 was generated in a manner similar to Raingeaud et al. [Mol. Cell.
The p38α assay employed is based on measurement of ADP released in the reaction of interest through NADH oxidation obtained by coupling with pyruvate kinase and lactate dehydrogenase reactions. The assays were performed in 384-well UV-plates. The final volume was 25 uL prepared from the addition of 2.5 uL compound dissolved in 10% DMSO, 17.5 uL of assay buffer and 5 uL of ATP. […] Test compounds are preincubated with p38α for 60 min and the reaction started by addition of ATP to 0.15 mM final concentration. Reaction rates were measured at 340 nm using SpectraMax plate-reading spectrophotometer for 10 min at 37° C. Inhibition data were analyzed by non-linear least squares regression using SigmaPlot.

T1 sequence (Q16539 whole entry): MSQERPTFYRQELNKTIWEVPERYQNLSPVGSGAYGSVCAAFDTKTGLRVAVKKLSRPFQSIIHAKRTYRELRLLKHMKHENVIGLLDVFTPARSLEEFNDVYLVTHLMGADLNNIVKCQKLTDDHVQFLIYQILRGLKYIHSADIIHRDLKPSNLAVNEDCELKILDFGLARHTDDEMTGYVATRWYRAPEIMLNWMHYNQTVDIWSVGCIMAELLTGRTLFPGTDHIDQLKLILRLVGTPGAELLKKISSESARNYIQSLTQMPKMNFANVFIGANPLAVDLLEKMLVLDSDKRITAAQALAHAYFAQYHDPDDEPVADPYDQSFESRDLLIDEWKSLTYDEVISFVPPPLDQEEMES

IC50, < 1000 nM:
Cc1ccc(C(=O)NC2CC2)cc1-c1ccc(-c2nnco2)cc1 [Example 1, 6-Methyl4′-[1,3,4]oxadiazol-2-yl-biphenyl-3-carboxylic acid cyclopropylamide]
Cc1ccc(C(=O)NC2CC2)cc1-c1ccc(-c2nnc[nH]2)cc1 [Example 3, 6-Methyl4′-(4H-[1,2,4]triazol-3-yl)-biphenyl-3-carboxylic acid cyclopropylamide]
Cc1ccc(C(=O)NC2CC2)cc1-c1ccc(-c2nnco2)cn1 [Example 4, N-Cyclopropyl-4-methyl-3-(5-[1,3,4]oxadiazol-2-yl-pyridin-2-yl)-benzamide]
Cc1nnc(-c2ccc(-c3cc(C(=O)NC4CC4)ccc3C)nc2)o1 [Example 5, N-Cyclopropyl-4-methyl-3-[5-(5-methyl-[1,3,4]oxadiazol-2-yl)-pyridin-2-yl]-benzamide]
Cc1ccc(C(=O)NC2CC2)cc1-c1ccc2c(=O)n(Cc3ccccc3)cnc2c1 [Example 6, 3-(3-Benzyl-4-oxo-3,4-dihydro-quinazolin-7-yl)-N-cyclopropyl-4-methyl-benzamide]
Cc1ccc(C(=O)NC2CC2)cc1-c1ccc2c(=O)n(Cc3c(Cl)cccc3Cl)cnc2c1 [Example 7, N-Cyclopropyl-3-[3-(2,6-dichloro-benzyl)-4-oxo-3,4-dihydro-quinazolin-7-yl]-4-methyl-benzamide]
Cc1ccc(C(=O)NC2CC2)cc1-c1ccc2c(=O)n(Cc3ccc(Cl)c(Cl)c3)cnc2c1 [Example 8, N-Cyclopropyl-3-[3-(3,4-dichloro-benzyl)-4-oxo-3,4-dihydro-quinazolin-7-yl]-4-methyl-benzamide]
COc1ccc(Cn2cnc3cc(-c4cc(C(=O)NC5CC5)ccc4C)ccc3c2=O)cc1 [Example 9, N-Cyclopropyl-3-[3-(4-methoxy-benzyl)-4-oxo-3,4-dihydro-quinazolin-7-yl]-4-methyl-benzamide]
Cc1ccc(C(=O)NC2CC2)cc1-c1ccc2c(=O)[nH]cnc2c1 [Example 10, N-Cyclopropyl-4-methyl-3-(4-oxo-3,4-dihydro-quinazolin-7-yl)-benzamide]
Cc1ccc(C(=O)NC2CC2)cc1-c1ccc(C(=O)c2ccccc2)cc1 [Example 11, 4′-Benzoyl-6-methyl-biphenyl-3-carboxylic acid cyclopropylamide]
COc1ccc(CNC(=O)c2ccc(-c3cc(C(=O)NC4CC4)ccc3C)nc2)cc1 [Example 12, 6-(5-Cyclopropylcarbamoyl-2-methyl-phenyl)-N-(4-methoxy-benzyl)-nicotinamide]
COc1ccc(CNC(=O)c2cnc(-c3cc(C(=O)NC4CC4)ccc3C)nc2N)cc1 [Example 13, N-(4-Methoxybenzyl)-2-[(5-cyclopropylaminocarbonyl)-2-methylphenyl]-4-aminopyrimidine-5-carboxyamide]
Cc1ccc(C(=O)NC2CC2)cc1-c1ccc(C(=O)c2ccccc2)c(N)c1 [Example 14, 3′-Amino-4′-benzoyl-6-methyl-biphenyl-3-carboxylic acid cyclopropylamide]
Cc1ccc(C(=O)NC2CC2)cc1-c1ccc2c(-c3ccccc3)nc(=O)[nH]c2c1 [Example 15, N-Cyclopropyl-4-methyl-3-(2-oxo-4-phenyl-1,2-dihydro-quinazolin-7-yl)-benzamide]
Cc1ccc(C(=O)NC2CC2)cc1-c1ccc2c(-c3ccccc3)ncnc2c1 [Example 16, N-Cyclopropyl-4-methyl-3-(4-phenyl-quinazolin-7-yl)-benzamide]
CC(=O)Nc1cc(-c2cc(C(=O)NC3CC3)ccc2C)ccc1C(=O)c1ccccc1 [Example 17, 3′-Acetylamino4′-benzoyl-6-methyl-biphenyl-3-carboxylic acid cyclopropylamide]
